The compounds below were run against T1, Dimer of Gag-Pol polyprotein [501-599] (Human immunodeficiency virus 1, UniProt P03367) (assay: Enzyme Inhibition Assay). Conditions: pH 5.5; 23 °C.
T1 construct: 501-599
Method: (§1) Enzyme assay was performed at room temperature on a microplate reader (Safire2TM) using black 96-well microtiter plates purchased from Nunc. Inhibitors and substrates were previously dissolved in 4% DMSO. The hydrolysis of the substrates was recorded as increase in fluorescence intensity. IC50 values were generated by nonlinear regression analysis from plots of vi/v0 versus inhibitor concentration, in which vi is the velocity in presence, and v0 the velocity in the absence of an inhibitor. The kinetic constants were determined by the method of Lineweaver and Burk, and Ki values were consecutively calculated from the following equation: Ki = IC50/[1 + (S/Km)]. The overall error of the assays is estimated to be +/-40%.

| SMILES | IC50 [µM] |
| --- | --- |
| Nc1ccc(S(=O)(=O)N(CCCNCCCN(Cc2ccccc2)S(=O)(=O)c2ccc(N)cc2)Cc2ccccc2)cc1 [phenyl-substituted sulfonamides, 6f] | > 250 |
| O=S(=O)(c1ccccc1)N(CCCNCCCN(Cc1ccccc1)S(=O)(=O)c1ccccc1)Cc1ccccc1 [phenyl-substituted sulfonamides, 6c] | > 250 |
| Nc1ccc(S(=O)(=O)N(CCCNCCN(Cc2ccccc2)S(=O)(=O)c2ccc(N)cc2)Cc2ccccc2)cc1 [phenyl-substituted sulfonamides, 6e] | > 250 |
| O=C(Cc1ccccc1)N(CCNCCN(Cc1ccccc1)C(=O)Cc1ccccc1)Cc1ccccc1 [carboxamide, 12a] | > 250 |
| O=C(Cc1ccccc1)N(CCCNCCN(Cc1ccccc1)C(=O)Cc1ccccc1)Cc1ccccc1 [carboxamide, 12b] | > 250 |
| O=C(Cc1ccccc1)N(CCCNCCCN(Cc1ccccc1)C(=O)Cc1ccccc1)Cc1ccccc1 [carboxamide, 12c] | > 250 |

These compounds were tested against Pepsin A (Sus scrofa, UniProt P00791) (assay: Enzyme Inhibition Assay). Conditions: 25 °C.
Method: as §1

Chain of Pepsin A (P00791 whole entry): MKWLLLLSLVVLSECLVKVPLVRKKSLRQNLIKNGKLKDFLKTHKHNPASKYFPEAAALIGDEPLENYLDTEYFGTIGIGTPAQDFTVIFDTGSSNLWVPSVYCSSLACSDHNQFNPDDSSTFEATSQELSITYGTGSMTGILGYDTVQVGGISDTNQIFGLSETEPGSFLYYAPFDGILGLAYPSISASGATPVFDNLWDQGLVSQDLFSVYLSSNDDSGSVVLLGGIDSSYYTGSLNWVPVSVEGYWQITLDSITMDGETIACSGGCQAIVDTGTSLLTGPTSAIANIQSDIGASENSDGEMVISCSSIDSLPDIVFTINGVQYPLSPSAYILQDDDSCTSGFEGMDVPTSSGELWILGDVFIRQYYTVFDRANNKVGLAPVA

| SMILES | IC50 [µM] |
| --- | --- |
| O=S(=O)(c1ccccc1)N(CCCNCCCN(Cc1ccccc1)S(=O)(=O)c1ccccc1)Cc1ccccc1 [phenyl-substituted sulfonamides, 6c] | > 250 |
| Nc1ccc(S(=O)(=O)N(CCCNCCN(Cc2ccccc2)S(=O)(=O)c2ccc(N)cc2)Cc2ccccc2)cc1 [phenyl-substituted sulfonamides, 6e] | > 250 |
| O=C(Cc1ccccc1)N(CCNCCN(Cc1ccccc1)C(=O)Cc1ccccc1)Cc1ccccc1 [carboxamide, 12a] | > 250 |
| O=C(Cc1ccccc1)N(CCCNCCN(Cc1ccccc1)C(=O)Cc1ccccc1)Cc1ccccc1 [carboxamide, 12b] | > 250 |
| O=C(Cc1ccccc1)N(CCCNCCCN(Cc1ccccc1)C(=O)Cc1ccccc1)Cc1ccccc1 [carboxamide, 12c] | > 250 |

Source: BindingDB's records for doi:10.1016/j.bmc.2008.08.012 (Philipps University Marburg, 2008)
